This note sets out measurements from PMC4890880 (ACS infectious diseases, 2016).

Where two headings read alike, the source gives them in different places. Bounds are passed on as bounds.

For assay [1], the system named is Plasmodium berghei (Pb-Luc) exoerythrocytic-stage parasites. The following applies: for IC50: read-out: PbLuc_IC50.
For the next assay, the system named is HepG2-A16-CD81EGFP cells. The following applies: for IC50: read-out: Tox_IC50, HepG2 cytotoxicity.
Setting [2] is: 2nd round, maximal inhibition in dose series.
Setting [3] is: first series of columns, fraction of control.
Setting [4] is: second series of columns (replicate), fraction of control.
Setting [5] is: sheet 2nd round, maximal inhibition in dose response.

For the compound `O=C(Cc1ccccn1)N1CC2(C1)[C@H](c1ccccc1)[C@H](CO)N2C(=O)c1ccncc1` [BRD-K71274172-001-01-0], the “PbLuc_max_inhibition (%)” value in assay [1] (setting [2]) amounted to 33%. The “normalized signal at 0.000508053 (first series)” value in assay [1] (concentration 0.000508053, first replicate series, fraction of control) was 0.9199. Also, in assay [1] (concentration 0.000508053, second replicate series, fraction of control), the “normalized signal at 0.000508053 (second series)” value is on record as 0.7398. In addition, in assay [1] (concentration 0.00152416, first replicate series, fraction of control), the “normalized signal at 0.00152416 (first series)” value is 1.024. Besides, in assay [1] (concentration 0.00152416, second replicate series, fraction of control), the “normalized signal at 0.00152416 (second series)” value stood at 0.9453. Further, in assay [1] (concentration 0.00457247, first replicate series, fraction of control), the “normalized signal at 0.00457247 (first series)” value came out at 1.112. The “normalized signal at 0.00457247 (second series)” value in assay [1] (concentration 0.00457247, second replicate series, fraction of control) amounted to 0.9743. The “normalized signal at 0.0137174 (first series)” value in assay [1] (concentration 0.0137174, first replicate series, fraction of control) is 0.9082. The “normalized signal at 0.0137174 (second series)” value in assay [1] (concentration 0.0137174, second replicate series, fraction of control) is 0.6716. In assay [1] (concentration 0.0411523, first replicate series, fraction of control), the “normalized signal at 0.0411523 (first series)” value is 1.078. In addition, the “normalized signal at 0.0411523 (second series)” value in assay [1] (concentration 0.0411523, second replicate series, fraction of control) worked out at 0.9171. In assay [1] (concentration 0.123457, first replicate series, fraction of control), the “normalized signal at 0.123457 (first series)” value stood at 1.09. Besides, the “normalized signal at 0.123457 (second series)” value in assay [1] (concentration 0.123457, second replicate series, fraction of control) worked out at 1.008. The “normalized signal at 0.37037 (first series)” value in assay [1] (concentration 0.37037, first replicate series, fraction of control) amounted to 0.9519. Moreover, the “normalized signal at 0.37037 (second series)” value in assay [1] (concentration 0.37037, second replicate series, fraction of control) amounted to 0.8993. Further, the “normalized signal at 1.11111 (first series)” value in assay [1] (concentration 1.11111, first replicate series, fraction of control) was found to be 1.039. Further, the “normalized signal at 1.11111 (second series)” value in assay [1] (concentration 1.11111, second replicate series, fraction of control) worked out at 0.6979. For the same compound, in assay [1] (concentration 3.33333, first replicate series, fraction of control), the “normalized signal at 3.33333 (first series)” value stood at 0.9642. Moreover, in assay [1] (concentration 3.33333, second replicate series, fraction of control), the “normalized signal at 3.33333 (second series)” value came to 0.9744. Moreover, the “normalized signal at 10 (first series)” value in assay [1] (concentration 10, first replicate series, fraction of control) is given as 1.127. Also, the “normalized signal at 10 (second series)” value in assay [1] (concentration 10, second replicate series, fraction of control) is listed as 0.8663. Besides, the IC50 in assay [1] (2nd round, Broad DOS compounds, unit not printed (dose series head 10 to 0.000508053)) was more than 10 µM; in the assay with HepG2-A16-CD81EGFP cells (2nd round, unit inferred), more than 10 µM. Further, the “Tox_max_inhibition (%)” value with HepG2-A16-CD81EGFP cells (setting [2]) is 8%.

For `Cc1noc(C)c1S(=O)(=O)N(C)C[C@H]1OCc2cn(nn2)CCCC(=O)N([C@@H](C)CO)C[C@@H]1C` [BRD-K72210630-001-02-7], in assay [1] (setting [3]), the “normalized signal at concentration 0.000508053” value worked out at 0.823, the “normalized signal at concentration 0.00152416” value is 0.7982, the “normalized signal at concentration 0.00457247” value was 0.9501 and the “normalized signal at concentration 0.0137174” value is on record as 0.8214. Besides, in assay [1] (setting [3]), the “normalized signal at concentration 0.0411523” value is listed as 0.9732, the “normalized signal at concentration 0.123457” value is 0.8751, the “normalized signal at concentration 0.37037” value is given as 1.086 and the “normalized signal at concentration 1.11111” value was found to be 0.9189. In assay [1] (setting [3]), the “normalized signal at concentration 3.33333” value was 0.9135 and the “normalized signal at concentration 10” value was determined as 1.047. Besides, the IC50 in assay [1] (sheet 2nd round, Pb-Luc exoerythrocytic stage, 10-point dose response, top concentration 10) is more than 10 µM. Also, in assay [1] (setting [4]), the “normalized signal at concentration 0.000508053” value is reported as 1.029, the “normalized signal at concentration 0.00152416” value is 0.9027, the “normalized signal at concentration 0.00457247” value was found to be 0.8403 and the “normalized signal at concentration 0.0137174” value was 1.03. In assay [1] (setting [4]), the “normalized signal at concentration 0.0411523” value is recorded as 0.8593, the “normalized signal at concentration 0.123457” value was determined as 1, the “normalized signal at concentration 0.37037” value is 0.7692 and the “normalized signal at concentration 1.11111” value is given as 0.8393. Further, in assay [1] (setting [4]), the “normalized signal at concentration 3.33333” value is 0.8793 and the “normalized signal at concentration 10” value was 0.8029. Moreover, in assay [1] (setting [5]), the “PbLuc_max_inhibition (%)” value is listed as 23%. The IC50 with HepG2-A16-CD81EGFP cells (sheet 2nd round) was more than 10 µM. In the assay with HepG2-A16-CD81EGFP cells (setting [5]), the “Tox_max_inhibition (%)” value was found to be 5%.
